Results reported in BindingDB's records for doi:10.1021/bi200855m (Whitman College, 2011).

Target: T1, 2,6-dichloro-p-hydroquinone 1,2-dioxygenase (Sphingobium chlorophenolicum, UniProt Q9ZBB0)
T1 sequence (Q9ZBB0 whole entry): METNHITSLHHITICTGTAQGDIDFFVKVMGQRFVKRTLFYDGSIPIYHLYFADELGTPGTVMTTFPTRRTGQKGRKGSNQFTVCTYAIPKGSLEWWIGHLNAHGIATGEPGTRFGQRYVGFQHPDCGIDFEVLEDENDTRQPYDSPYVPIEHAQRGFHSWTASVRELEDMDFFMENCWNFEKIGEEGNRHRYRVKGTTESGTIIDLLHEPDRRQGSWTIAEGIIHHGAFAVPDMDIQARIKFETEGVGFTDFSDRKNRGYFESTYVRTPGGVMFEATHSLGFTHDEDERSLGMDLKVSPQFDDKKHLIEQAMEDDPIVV
Test: Inhibition Assay
Protocol: The rate of the enzymatic reaction was determined by measuring product formation by a spectrophotometric assay developed by Xun and co-worker with modification. The assay was performed on a Cary 50 Bio or Cary 5000 UV-visible spectrophotometer (Varian).

SMILES	Ki
Oc1c(Cl)cccc1Cl [2,6-Dichlorophenol]	48 µM
Oc1c(Br)cccc1Br	13 µM
